The record followed here is patent US12486251B2 (PHARMABLOCK SCIENCES (NANJING) , INC., priority 2020, dated 2025).

The target of the assay is CBP recombinant proteins (Homo sapiens (Human), UniProt Q92793). The assay can be described thus: Competitive HTRF assay for affinity to CBP recombinant protein. The assay is classed as binding. To be noted: His-tagged CBP 5 nM, biotin-labeled ligand 50 nM, 1% DMSO. For orientation: In TR-FRET formats the signal depends on donor and acceptor labels being close together.
CBP recombinant proteins, sequence (Q92793 whole entry): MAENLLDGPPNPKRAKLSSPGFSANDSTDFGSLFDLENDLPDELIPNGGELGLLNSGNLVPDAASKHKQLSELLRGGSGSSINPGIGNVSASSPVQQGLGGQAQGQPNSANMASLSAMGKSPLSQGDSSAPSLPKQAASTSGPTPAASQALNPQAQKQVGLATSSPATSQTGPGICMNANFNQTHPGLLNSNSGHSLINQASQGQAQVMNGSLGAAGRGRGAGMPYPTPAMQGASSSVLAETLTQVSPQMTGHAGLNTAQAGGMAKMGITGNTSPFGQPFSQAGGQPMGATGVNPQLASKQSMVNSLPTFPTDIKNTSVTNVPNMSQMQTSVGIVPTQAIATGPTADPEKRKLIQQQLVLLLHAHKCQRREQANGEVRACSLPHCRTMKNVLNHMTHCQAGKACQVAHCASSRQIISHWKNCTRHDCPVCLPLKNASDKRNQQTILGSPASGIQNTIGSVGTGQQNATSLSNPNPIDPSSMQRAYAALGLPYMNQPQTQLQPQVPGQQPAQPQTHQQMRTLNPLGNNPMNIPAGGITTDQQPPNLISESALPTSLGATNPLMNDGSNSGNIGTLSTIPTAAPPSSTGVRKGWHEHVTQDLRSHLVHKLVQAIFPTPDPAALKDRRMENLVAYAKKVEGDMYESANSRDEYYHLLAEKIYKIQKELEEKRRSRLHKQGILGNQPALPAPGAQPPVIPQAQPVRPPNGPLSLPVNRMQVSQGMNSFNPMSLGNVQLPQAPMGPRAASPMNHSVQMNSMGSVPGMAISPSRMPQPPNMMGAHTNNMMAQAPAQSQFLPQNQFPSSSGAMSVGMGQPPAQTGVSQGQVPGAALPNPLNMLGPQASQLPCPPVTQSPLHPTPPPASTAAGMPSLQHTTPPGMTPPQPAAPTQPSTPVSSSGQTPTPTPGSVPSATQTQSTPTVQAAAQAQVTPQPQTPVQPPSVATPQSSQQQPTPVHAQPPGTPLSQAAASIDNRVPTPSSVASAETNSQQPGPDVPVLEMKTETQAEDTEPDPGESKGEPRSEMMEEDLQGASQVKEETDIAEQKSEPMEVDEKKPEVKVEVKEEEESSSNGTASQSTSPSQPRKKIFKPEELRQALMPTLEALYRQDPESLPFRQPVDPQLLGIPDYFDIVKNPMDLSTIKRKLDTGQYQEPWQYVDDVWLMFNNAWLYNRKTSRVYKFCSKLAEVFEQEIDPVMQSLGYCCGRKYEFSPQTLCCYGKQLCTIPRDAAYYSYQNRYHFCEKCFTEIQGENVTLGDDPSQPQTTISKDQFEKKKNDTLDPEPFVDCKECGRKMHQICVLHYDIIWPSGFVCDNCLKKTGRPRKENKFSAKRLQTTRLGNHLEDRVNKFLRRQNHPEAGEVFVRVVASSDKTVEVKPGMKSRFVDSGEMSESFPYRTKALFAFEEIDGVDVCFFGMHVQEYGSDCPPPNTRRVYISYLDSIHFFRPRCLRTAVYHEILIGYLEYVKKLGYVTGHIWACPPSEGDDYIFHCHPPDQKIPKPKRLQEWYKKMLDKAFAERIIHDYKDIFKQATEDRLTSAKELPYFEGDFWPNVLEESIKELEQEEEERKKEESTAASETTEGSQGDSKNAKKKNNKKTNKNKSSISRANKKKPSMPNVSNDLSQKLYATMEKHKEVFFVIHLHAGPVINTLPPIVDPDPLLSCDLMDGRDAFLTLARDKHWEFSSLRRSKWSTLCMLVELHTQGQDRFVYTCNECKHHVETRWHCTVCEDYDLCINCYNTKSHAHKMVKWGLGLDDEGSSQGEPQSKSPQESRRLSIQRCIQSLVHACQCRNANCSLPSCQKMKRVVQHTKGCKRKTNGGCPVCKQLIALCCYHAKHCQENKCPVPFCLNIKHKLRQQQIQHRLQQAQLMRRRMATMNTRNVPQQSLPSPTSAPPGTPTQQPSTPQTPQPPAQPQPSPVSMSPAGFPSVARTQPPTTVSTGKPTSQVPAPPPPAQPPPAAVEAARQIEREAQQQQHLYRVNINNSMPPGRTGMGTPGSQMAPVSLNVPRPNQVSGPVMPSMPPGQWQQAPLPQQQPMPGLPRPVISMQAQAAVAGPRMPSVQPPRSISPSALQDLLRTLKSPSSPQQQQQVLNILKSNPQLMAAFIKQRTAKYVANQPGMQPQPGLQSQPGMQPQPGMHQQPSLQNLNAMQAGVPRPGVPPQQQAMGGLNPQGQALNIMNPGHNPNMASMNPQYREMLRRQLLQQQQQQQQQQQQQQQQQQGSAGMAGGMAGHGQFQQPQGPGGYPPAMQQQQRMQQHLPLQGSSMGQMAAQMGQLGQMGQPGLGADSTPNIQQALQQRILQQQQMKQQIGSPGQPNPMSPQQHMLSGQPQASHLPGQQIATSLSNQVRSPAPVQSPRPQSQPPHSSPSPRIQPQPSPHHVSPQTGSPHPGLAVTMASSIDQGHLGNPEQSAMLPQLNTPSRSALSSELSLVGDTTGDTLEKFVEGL
As a reminder, the IC50 is the concentration needed to halve the response being measured. For the molecule `CNC(=O)c1cc2cc(Cl)cnc2c(N2CCCc3cc(C4CCN(C(C)=O)CC4)c(C(F)F)cc32)n1` [Example 50, 8-[6-(1-acetylpiperidin-4-yl)-7-difluoro-methyl-3,4-dihydro-2H-quinolin-1-yl]-3-chloro-[1,7] naphthyridine-6-carboxylic acid methylamide], the concentration for half-maximal inhibition (IC50) is 0.054 µM.

`CNC(=O)c1cc2cc(OC)cnc2c(N2CCCc3cc(C4CCN(C(C)=O)CC4)c(C(F)F)cc32)n1` [Example 51, 8-[6-(1-acetylpiperidin-4-yl)-7-difluoro-methyl-3,4-dihydro-2H-quinolin-1-yl]-3-methoxy-[1,7] naphthyridine-6-carboxylic acid methylamide]: the IC50 came to 0.022 µM.

Turning to `CNC(=O)c1cc2cc(F)cnc2c(N2CCCc3cc(C4CCN(C(C)=O)CC4)c(C(F)F)cc32)n1` [Example 52, 8-[6-(1-acetylpiperidin-4-yl)-7-difluoro-methyl-3,4-dihydro-2H-quinolin-1-yl]-3-fluoro-[1,7] naphthyridine-6-carboxylic acid methylamide], the IC50 stood at 0.027 µM.

`CNC(=O)c1cc2cccnc2c(N2CCCc3cc(-c4cnn(C5CNC5)c4)c(C(F)F)cc32)n1` [Example 53, 8-[6-(1-azetidin-3-yl-1H-pyrazol-4-yl)-7-difluoromethyl-3,4-dihydro-2H-quinolin-1-yl]-[1,7]naphthyridine-6-carboxylic acid methylamide]: the concentration for half-maximal inhibition (IC50) is 0.014 µM.

For `CNC(=O)c1cc2cccnc2c(N2CCCc3cc(-c4cnn(C5CN(C)C5)c4)c(C(F)F)cc32)n1` [Example 54, 8-{7-difluoromethyl-6-[1-(1-methyl-azetidin-3-yl)-1H-pyrazol-4-yl]-3,4-dihydro-2H-quinolin-1-yl}-[1,7]naphthyridine-6-carboxylic acid methylamide], the IC50 was 0.011 µM.

On to `CNC(=O)c1cc2cccnc2c(N2CCCc3cc(-c4cnn(CC#N)c4)c(C(F)F)cc32)n1` [Example 55, 8-[6-(1-cyanomethyl-1H-pyrazol-4-yl)-7-difluoromethyl-3,4-dihydro-2H-quinolin-1-yl]-[1,7]naphthyridine-6-carboxylic acid methylamide], for which the IC50 came out at 0.015 µM.

With `CNC(=O)Cn1cc(-c2cc3c(cc2C(F)F)N(c2nc(C(=O)NC)cc4ccccc24)CCC3)cn1` [Example 56, 1-[7-difluoromethyl-6-(1-methylcarbamoylmethyl-1H-pyrazol-4-yl)-3,4-dihydro-2H-quinolin-1-yl]-isoquinoline-3-carboxylic acid methylamide], the IC50 is 0.024 µM.

On to `CNC(=O)c1cc2ccccc2c(N2CCCc3cc(-c4cnn(C)c4)c(Cl)cc32)n1` [Example 57, 1-[7-chloro-6-(1-methyl-1H-pyrazol-4-yl)-3,4-dihydro-2H-quinolin-1-yl]-isoquinoline-3-carboxylic acid methylamide], for which the IC50 stood at 0.036 µM.

As for `CNC(=O)c1ccc2c(c1)CCCN2c1nc(C(=O)NC)cc2ccccc12` [Example 58, 1-(3-methylcarbamoylisoquinolin-1-yl)-1,2,3,4-tetrahydroquinoline-6-carboxylic acid methylamide], the IC50 came out at 0.1 µM.

Turning to `CNC(=O)c1cc2ccccc2c(N2CCCc3cc(CO)ccc32)n1` [Example 59, 1-(6-hydroxymethyl-3,4-dihydro-2H-quinolin-1-yl)-isoquinoline-3-carboxylic acid methylamide], the IC50 was found to be 0.402 µM.

Regarding `CNC(=O)c1cc2ccccc2c(N2CCOc3cc(-c4cnn(C)c4)ccc32)n1` [Example 60, 1-[7-(1-methyl-1H-pyrazol-4-yl)-2,3-dihydro-benzo[1,4]oxazin-4-yl]-isoquinoline-3-carboxylic acid methylamide], the IC50 came to 0.058 µM.

Consider `CNC(=O)c1cc2c(c(N3CCCc4cc(-c5cnn(C)c5)c(C(F)F)cc43)n1)CCC2` [Example 61, 1-[7-difluoromethyl-6-(1-methyl-1H-pyrazol-4-yl)-3,4-dihydro-2H-quinolin-1-yl]-6,7-dihydro-5H-[2]pyrazine-3-carboxylic acid methylamide], for which the IC50 stood at 0.07 µM.

For `CNC(=O)c1cc2c(c(N3CCCc4cc(-c5cnn(C)c5)c(C(F)F)cc43)n1)COC2` [Example 62, 4-(7-(difluoro-methyl)-6-(1-methyl-1H-pyrazol-4-yl)-3,4-dihydroquinolin-1(2H)-yl)-N-methyl-1,3-dihydrofuran [3,4-c]pyridine-6-carboxamide], the IC50 turned out to be 0.287 µM.

Take `CNC(=O)c1cc2ccoc2c(N2CCCc3cc(-c4cnn(C)c4)c(C(F)F)cc32)n1` [Example 63, 7-[7-difluoromethyl-6-(1-methyl-1H-pyrazol-4-yl)-3,4-dihydro-2H-quinolin-1-yl]-furan[2,3-c]pyridine-5-carboxylic acid methylamide]: the IC50 worked out at 0.136 µM.

For the molecule `CNC(=O)c1cc2ncccc2c(N2CCCc3cc(-c4cnn(C)c4)c(C(F)F)cc32)n1` [Example 64, 5-[7-difluoromethyl-6-(1-methyl-1H-pyrazol-4-yl)-3,4-dihydro-2H-quinolin-1-yl]-[1,6]naphthyridine-7-carboxylic acid methylamide], the IC50 came out at 0.014 µM.

Regarding `CNC(=O)c1cc2cccnc2c(N2CCOc3cc(-c4cnn(C)c4)c(C(F)F)cc32)n1` [Example 65, 8-[6-difluoromethyl-7-(1-methyl-1H-pyrazol-4-yl)-2,3-dihydro-benzo[1,4]oxazin-4-yl]-[1,7]naphthyridine-6-carboxylic acid methylamide], the IC50 was 0.012 µM.

As for `CNC(=O)c1cc2cccnc2c(-c2ccc3c(c2)c(-c2cnn(C)c2)nn3C)n1` [Example 66, 8-[1-methyl-3-(1-methy 1-1H-pyrazol-4-yl)-1H-indazol-5-yl]-[1,7]naphthyridine-6-carboxylic acid methylamide], the IC50 was 0.049 µM.
